These results are taken from patent US9408817B2, “Methods for detecting inflammatory bowel disease in a feline” (Hill's Pet Nutrition, Inc., priority 2005, dated 2016).

Format in all cases: cell-based
Experiment [1] relates to IL-1β. The experiment is described as follows: cytokine expression by RT-PCR in PHA-stimulated lymphocytes: IL-1β. To be noted: PHA + 12.5 μM, healthy cats (no PHA) = 1. On the procedure:
(§1) Lymphocytes are obtained from the blood of healthy cats and cats with IBD as described in Example 1 and then treated with DHA or EPA also as described in Example 1. Ribonucleic acid (RNA) is extracted from all samples, and real time polymerase chain reaction (RT-PCR) is performed to examine the changes in the level of expression of the following cytokines: interleukins 1α, 1β, 2, 6, and 10 (IL-1α, IL-1β, IL-2, IL-6, and IL-10), macrophage inhibitory factor (MIF), interferon gamma (IFN-γ), and transforming growth factor beta (TGF-β).

The subject of experiment [2] is IFN-γ. Nature of the experiment: cytokine expression by RT-PCR in PHA-stimulated lymphocytes: IFN-γ. To be noted: PHA + 12.5 μM, healthy cats (no PHA) = 1. On the procedure: as §1
The test system of experiment [3] is TGF-β. Nature of the experiment: cytokine expression by RT-PCR in PHA-stimulated lymphocytes: TGF-β. To be noted: PHA + 12.5 μM, healthy cats (no PHA) = 1. On the procedure: as §1
For experiment [4], the system named is IL-2. Nature of the experiment: cytokine expression by RT-PCR in PHA-stimulated lymphocytes: IL-2. To be noted: PHA + 12.5 μM, healthy cats (no PHA) = 1. The procedure: as §1
Experiment [5] concerns lymphocytes obtained from the blood of healthy cats and cats with IBD. The experiment is described as follows: in vitro lymphocyte proliferation assay (BrdU ELISA, PHA-stimulated). To be noted: 40 h. On the procedure:
The study utilizes eleven healthy cats and eleven cats with IBD, The cats with IBD are diagnosed by an intestinal biopsy, and have a history of chronic diarrhea. For six weeks, all cats are fed a nutritionally adequate dry food indicated for gastrointestinal distress. Blood is drawn from all cats at four, five, and six weeks. Samples with equal amounts of lymphocytes are used in an in vitro lymphocyte proliferation assay.
More specifically, 4.5 ml blood is mixed with 4.5 ml HBSS (Hank's Balanced Salt Solution)+25 mM HEPES. 4 ml of Ficoll-Paque Plus (Amersham) are slowly injected under the diluted blood. The mixture is centrifuged for twenty minutes at 500 g at 25° C. The upper layer is discarded. The lymphocytes are transferred into a clean tube, resuspended in 6 ml of HBSS+25 mM HEPES, and then centrifuged for ten minutes at 200 g at 25° C. The supernatant is discarded, and the lymphocytes are washed with 6 ml of HBSS. This centrifugation and wash step is repeated two more times. The washed lymphocytes are then resuspended in 5 ml of AIM medium (Invitrogen). Samples with 200,000 lymphocytes in 100 μl of AIM medium are used for the lymphocyte proliferation assay.
The lymphocyte proliferation assay is performed utilizing Amersham's Biotrak cell proliferation ELISA system, version 2. Lymphocyte samples are incubated in a 96-well plate with 7 μg/ml PHA (phytohemagglutinin) in the absence or presence of 12.5 μM and 25 μM DHA or EPA in a 37° C. incubator with 5% CO2 and 90% humidity for forty hours. After that, 20 μl of 100 μM BrdU is added, and the samples are incubated for two hours at 37° C. The plates are then removed from the incubator and centrifuged at 300 g for ten minutes at 25° C. The medium is removed by tapping and blotting, and the cells are dried in a chemical fume hood for at least fifteen minutes. 200 μl of fixative is added to every well and the plate is incubated for thirty minutes at room temperature. The cell fixative is removed by tapping and blotting. 200 μl of blocking buffer are added to every well, and the plate is incubated for thirty minutes at room temperature. The blocking buffer is removed by tapping and blotting, and 100 μl of anti-BrdU working solution is added to each well and incubated for ninety minutes at room temperature. The anti-BrdU solution is removed by tapping and blotting, and each well is rinsed three times with 300 μl washing solution. 100 μl 3.3′,5,5′-tetamethylbenzidine is added to each well and incubated for ten minutes or until color intensity is achieved. 25 μl 1M sulfuric acid is added to stop the reaction, and the plate is read on a fusion microplate reader (PerkinElmer) within five minutes.

Experiment [6] relates to IL-6. Nature of the experiment: cytokine expression by RT-PCR in PHA-stimulated lymphocytes: IL-6. To be noted: PHA + 12.5 μM, healthy cats (no PHA) = 1. The procedure: as §1
Experiment [7] has as its system IL-10. The experiment is described as follows: cytokine expression by RT-PCR in PHA-stimulated lymphocytes: IL-10. To be noted: PHA + 12.5 μM, healthy cats (no PHA) = 1. On the procedure:
as §1

The test system of experiment [8] is MIF. Nature of the experiment: cytokine expression by RT-PCR in PHA-stimulated lymphocytes: MIF. To be noted: PHA + 12.5 μM, healthy cats (no PHA) = 1. The procedure: as §1
Experiment [9] relates to IL-1α. The experiment is described as follows: cytokine expression by RT-PCR in PHA-stimulated lymphocytes: IL-1α. To be noted: PHA + 12.5 μM, healthy cats (no PHA) = 1. On the procedure:
as §1

Where [10] appears, read: lymphocytes of cats with IBD, 7 μg/ml PHA + 12.5 μM fatty acid.
The mark [11] stands for this setting: lymphocytes of cats with IBD, 7 μg/ml PHA + 25 μM fatty acid.
Where [12] appears, read: lymphocytes of healthy cats, 7 μg/ml PHA + 12.5 μM fatty acid.
[13] abbreviates: lymphocytes of healthy cats, 7 μg/ml PHA + 25 μM fatty acid.

Consider `CC/C=C\C/C=C\C/C=C\C/C=C\C/C=C\CCCC(=O)O` [EPA, eicosapentaenoic acid], for which the IL-1β expression in experiment [1] (cats with IBD) came out at 1.34; in experiment [1] (healthy cats) it was 1.17. Moreover, the IFN-γ expression turned out to be 4.45 in experiment [2] (cats with IBD) and 130.9 in experiment [2] (healthy cats). Moreover, the TGF-β expression in [3] (cats with IBD) is given as 2.4; in [3] (healthy cats), 4.7. Besides, the IL-2 expression in experiment [4] (cats with IBD) was 1.89; in experiment [4] (healthy cats), 59.4. The “Lymphocyte Proliferation” value is on record as 0.62 ± 0.27 in experiment [5] (setting [10]), 0.63 ± 0.29 in [5] (setting [11]), 0.38 ± 0.23 in [5] (setting [12]) and 0.37 ± 0.23 in [5] (setting [13]). Further, the IL-6 expression is 6.45 in [6] (cats with IBD) and 10.6 in experiment [6] (healthy cats). The figures for the IL-10 expression in experiment [7] (cats with IBD) and in experiment [7] (healthy cats) were 0.34 and 1.2, respectively. Besides, the MIF expression in experiment [8] (cats with IBD) turned out to be 4.45; in experiment [8] (healthy cats), 14.05. The IL-1α expression in [9] (cats with IBD) amounted to 0.46; in experiment [9] (healthy cats), 1.05.

As to `CC/C=C\C/C=C\C/C=C\C/C=C\C/C=C\C/C=C\CCC(=O)O` [DHA, docosahexaenoic acid], the IL-1β expression was 1.85 in experiment [1] (cats with IBD) and 0.87 in experiment [1] (healthy cats). The IFN-γ expression in experiment [2] (cats with IBD) worked out at 4.9; in experiment [2] (healthy cats) it was 37.6. Moreover, the TGF-β expression in experiment [3] (cats with IBD) was found to be 1.45; in experiment [3] (healthy cats) it was 3.55. The IL-2 expression is on record as 3 in [4] (cats with IBD) and 21.05 in [4] (healthy cats). The “Lymphocyte Proliferation” value is given as 0.49 ± 0.15 in experiment [5] (setting [10]), 0.45 ± 0.18 in experiment [5] (setting [11]), 0.28 ± 0.19 in experiment [5] (setting [12]) and 0.25 ± 0.17 in experiment [5] (setting [13]). Also, the IL-6 expression in [6] (cats with IBD) was determined as 13.9; in experiment [6] (healthy cats), 5.75. The IL-10 expression in [7] (cats with IBD) is given as 0.45; in [7] (healthy cats), 0.95. Besides, the MIF expression stood at 6.55 in [8] (cats with IBD) and 16.9 in [8] (healthy cats). For the same compound, the IL-1α expression in [9] (cats with IBD) is 0.57; in [9] (healthy cats), 0.86.
